From US12540131B2 (Merck Sharp & Dohme LLC, priority 2019, dated 2026)

Molecular target: GST tagged truncated human mutant G2019S LRRK2 (Homo sapiens (Human), UniProt Q5S007, G2019S)
Test: LRRK2 Km ATP LanthaScreen Assay
Type: biochemical
Settings: G2019S LRRK2, 134 μM ATP (Km ATP), mean values; for IC50: read-out: LRRK2 pIC50 (converted)
In short: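 Enzyme (GST-tagged, truncated) was preincubated with compound for 15 min at RT in 50 mM Tris pH 8.5, 10 mM MgCl2, 0.01% Brij-35, 1 mM EGTA, 2 mM DTT and 0.05 mM orthovanadate. Fluorescein-LRRKtide and 134 μM ATP (Km) were then added for 90 min. EDTA and Tb-anti-pERM antibody stopped the reaction; the TR-FRET 520/495 ratio gave 4-parameter IC50s, reported as mean pIC50.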

GST tagged truncated human mutant G2019S LRRK2, sequence (Q5S007 970-2527 G2019S): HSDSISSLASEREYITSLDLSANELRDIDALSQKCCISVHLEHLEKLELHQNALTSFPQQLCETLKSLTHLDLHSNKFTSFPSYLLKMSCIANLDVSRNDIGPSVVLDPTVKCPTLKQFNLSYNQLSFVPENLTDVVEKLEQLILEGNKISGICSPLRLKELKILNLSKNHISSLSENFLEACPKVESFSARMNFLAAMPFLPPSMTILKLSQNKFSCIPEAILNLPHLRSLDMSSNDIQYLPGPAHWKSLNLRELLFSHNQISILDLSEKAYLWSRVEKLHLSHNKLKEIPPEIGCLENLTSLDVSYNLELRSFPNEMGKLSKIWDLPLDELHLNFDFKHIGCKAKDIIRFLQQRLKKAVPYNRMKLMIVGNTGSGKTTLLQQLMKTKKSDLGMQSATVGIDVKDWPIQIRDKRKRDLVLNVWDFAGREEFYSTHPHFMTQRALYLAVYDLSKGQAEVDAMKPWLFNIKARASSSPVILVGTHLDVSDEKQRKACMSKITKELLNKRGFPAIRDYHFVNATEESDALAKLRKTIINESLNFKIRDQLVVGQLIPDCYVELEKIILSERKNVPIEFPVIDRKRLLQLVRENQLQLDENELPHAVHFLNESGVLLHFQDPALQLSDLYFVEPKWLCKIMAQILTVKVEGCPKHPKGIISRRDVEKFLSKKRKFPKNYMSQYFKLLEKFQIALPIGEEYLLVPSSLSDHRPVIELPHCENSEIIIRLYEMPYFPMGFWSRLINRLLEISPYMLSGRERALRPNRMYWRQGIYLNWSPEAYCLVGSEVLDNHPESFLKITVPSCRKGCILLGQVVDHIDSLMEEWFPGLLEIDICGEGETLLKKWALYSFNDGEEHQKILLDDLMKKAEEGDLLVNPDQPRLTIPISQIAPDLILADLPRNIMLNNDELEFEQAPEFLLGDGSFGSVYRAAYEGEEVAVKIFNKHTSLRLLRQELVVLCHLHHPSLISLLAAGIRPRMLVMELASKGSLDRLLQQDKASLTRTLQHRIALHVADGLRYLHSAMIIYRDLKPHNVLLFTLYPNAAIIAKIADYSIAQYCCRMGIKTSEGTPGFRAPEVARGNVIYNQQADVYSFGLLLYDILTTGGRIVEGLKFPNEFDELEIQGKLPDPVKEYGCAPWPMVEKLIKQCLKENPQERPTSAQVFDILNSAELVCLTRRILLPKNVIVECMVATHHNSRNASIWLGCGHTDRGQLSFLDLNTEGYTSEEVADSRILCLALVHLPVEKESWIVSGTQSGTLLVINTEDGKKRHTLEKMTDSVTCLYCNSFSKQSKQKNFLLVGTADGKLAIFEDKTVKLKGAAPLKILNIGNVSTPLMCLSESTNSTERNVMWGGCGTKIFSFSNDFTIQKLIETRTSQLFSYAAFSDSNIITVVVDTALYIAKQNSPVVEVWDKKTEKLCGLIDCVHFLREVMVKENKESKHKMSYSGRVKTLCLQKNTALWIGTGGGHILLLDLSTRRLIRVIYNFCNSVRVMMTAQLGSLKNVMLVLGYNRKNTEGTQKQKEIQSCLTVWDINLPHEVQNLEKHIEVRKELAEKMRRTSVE

Row | SMILES | IC50 | LRRK2 pIC50
1 | F[C@@H]1CNCC[C@H]1c1cc2nc(Nc3cnn(C4CC4)c3Cl)ncc2cc1Cl (single isomer, unassigned) [Ex-4.2, (3S,4S) or (3R,4R) 6-chloro-N-(5-chloro-1-cyclopropyl-1H-pyrazol-4-yl)-7-(3-fluoropiperidin-4-yl)quinazolin-2-amine] | < 0.631 nM | 
2 | CCN1CC[C@@H](c2cc3nc(Nc4cnn(CC(C)(C)O)c4Cl)ncc3cc2Cl)[C@H](F)C1 (single isomer, unassigned) [Ex-4.4, (3S,4S) or (3R,4R) 1-(5-chloro-4-((6-chloro-7-(1-ethyl-3-fluoropiperidin-4-yl)quinazolin-2-yl)amino)-1H-pyrazol-1-yl)-2-methylpropan-2-ol] |  | 8.88
3 | CCN1CC[C@@H](c2cc3nc(Nc4cnn(CC(C)(C)O)c4Cl)ncc3cc2Cl)[C@H](F)C1 (single isomer, unassigned) [Ex-4.5, (3S,4S) or (3R,4R) 1-(5-chloro-4-((6-chloro-7-(1-ethyl-3-fluoropiperidin-4-yl)quinazolin-2-yl)amino)-1H-pyrazol-1-yl)-2-methylpropan-2-ol] | 1.62 nM | 
4 | O[C@@H]1COCC1N1CC[C@H](c2cc3nc(Nc4cnn(C5CC5(F)F)c4Cl)ncc3cc2Cl)[C@@H](F)C1 (single isomer, unassigned) [Ex-4.9, (R)(3S,4S)(3S,4S) or (R)(3S,4S)(3R,4R) or (R)(3R,4R)(3S,4S) or (R)(3R,4R)(3R,4R) or (S)(3S,4S)(3S,4S) or (S)(3S,4S)(3R,4R) or (S)(3R,4R)(3S,4S) or (S)(3R,4R)(3R,4R) 4-(4-(6-chloro-2-((5-chloro-1-(2,2-difluorocyclopropyl)-1H-pyrazol-4-yl)amino)quinazolin-7-yl)-3-fluoropiperidin-1-yl)tetrahydrofuran-3-ol] |  | >9.20
5 | CC1(N2CC[C@H](c3cc4nc(Nc5cnn(C6CC6(F)F)c5Cl)ncc4cc3Cl)[C@@H](F)C2)COC[C@@H]1O (single isomer, unassigned) [Ex-4.10, (R)(3S,4S)(3S,4S) or (R)(3S,4S)(3R,4R) or (R)(3R,4R)(3S,4S) or (R)(3R,4R)(3R,4R) or (S)(3S,4S)(3S,4S) or (S)(3S,4S)(3R,4R) or (S)(3R,4R)(3S,4S) or (S)(3R,4R)(3R,4R) 4-(6-chloro-2-((5-chloro-1-(2,2-difluorocyclopropyl)-1H-pyrazol-4-yl)amino)quinazolin-7-yl)-3-fluoropiperidin-1-yl)-4-methyltetrahydrofuran-3-ol] |  | >9.20
6 | CC1(N2CC[C@H](c3cc4nc(Nc5cnn(C6CC6(F)F)c5Cl)ncc4cc3Cl)[C@@H](F)C2)COC[C@@H]1O (single isomer, unassigned) [Ex-4.11, (R)(3S,4S)(3S,4S) or (R)(3S,4S)(3R,4R) or (R)(3R,4R)(3S,4S) or (R)(3R,4R)(3R,4R) or (S)(3S,4S)(3S,4S) or (S)(3S,4S)(3R,4R) or (S)(3R,4R)(3S,4S) or (S)(3R,4R)(3R,4R) 4-(6-chloro-2-((5-chloro-1-(2,2-difluorocyclopropyl)-1H-pyrazol-4-yl)amino)quinazolin-7-yl)-3-fluoropiperidin-1-yl)-4-methyltetrahydrofuran-3-ol] |  | 8.73
7 | Cc1c(Nc2ncc3cc(Cl)c(C4CCN(CC(O)C(F)(F)F)CC4)cc3n2)cnn1C1CC1 (single isomer, unassigned) [Ex-4.12, (R) or (S) 3-(4-(6-chloro-2-((1-cyclopropyl-5-methyl-1H-pyrazol-4-yl)amino)quinazolin-7-yl)piperidin-1-yl)-1,1,1-trifluoropropan-2-ol] | < 0.631 nM | 
8 | CN1CC[C@@H](c2cc3nc(Nc4cnn(CC(C)(C)O)c4Cl)ncc3cc2Cl)[C@H](F)C1 (single isomer, unassigned) [Ex-4.22, (3S,4S) or (3R,4R) 1-(5-chloro-4-{[6-chloro-7-(3-fluoro-1-methylpiperidin-4-yl)quinazolin-2-yl]amino}-1H-pyrazol-1-yl)-2-methylpropan-2-ol] |  | >9.20
9 | CN1CC[C@H](c2cc3nc(Nc4cnn(CC(C)(C)O)c4Cl)ncc3cc2Cl)[C@@H](F)C1 (single isomer, unassigned) [Ex-4.23, (3S,4S) or (3R,4R) 1-(5-chloro-4-{[6-chloro-7-(3-fluoro-1-methylpiperidin-4-yl)quinazolin-2-yl]amino}-1H-pyrazol-1-yl)-2-methylpropan-2-ol] |  | 9.08
10 | CC1(n2ncc(Nc3ncc4cc(Cl)c(C5CCN(C6COC6)C5)cc4n3)c2Cl)CC1 (single isomer, unassigned) [Ex-4.25, (S) or (R) 6-chloro-N-[5-chloro-1-(1-methylcyclopropyl)-1H-pyrazol-4-yl]-7-[1-(oxetan-3-yl)pyrrolidin-3-yl]quinazolin-2-amine] | 3.09 nM | 
11 | CC1(n2ncc(Nc3ncc4cc(Cl)c(C5CCN(C6COC6)C5)cc4n3)c2Cl)CC1 (single isomer, unassigned) [Ex-4.26, (S) or (R) 6-chloro-N-[5-chloro-1-(1-methylcyclopropyl)-1H-pyrazol-4-yl]-7-[1-(oxetan-3-yl)pyrrolidin-3-yl]quinazolin-2-amine] | 4.9 nM | 
12 | CC1(n2ncc(Nc3ncc4cc(Cl)c([C@@H]5CCN(C6COC6)C[C@H]5F)cc4n3)c2Cl)CC1 (single isomer, unassigned) [Ex-4.27, (3S,4S) or (3R,4R) 6-chloro-N-[5-chloro-1-(1-methylcyclopropyl)-1H-pyrazol-4-yl]-7-[3-fluoro-1-(oxetan-3-yl)piperidin-4-yl]quinazolin-2-amine] |  | >9.20
13 | CC1(n2ncc(Nc3ncc4cc(Cl)c([C@H]5CCN(C6COC6)C[C@@H]5F)cc4n3)c2Cl)CC1 (single isomer, unassigned) [Ex-4.28, (3S,4S) or (3R,4R) 6-chloro-N-[5-chloro-1-(1-methylcyclopropyl)-1H-pyrazol-4-yl]-7-[3-fluoro-1-(oxetan-3-yl)piperidin-4-yl]quinazolin-2-amine] |  | >9.20
14 | CN1CC[C@@H](c2cc3nc(Nc4cnn(C5(C)CC5)c4Cl)ncc3cc2Cl)[C@H](O)C1 (single isomer, unassigned) [Ex-4.29, (3S,4S) or (3R,4R) 4-(6-chloro-2-{[5-chloro-1-(1-methylcyclopropyl)-1H-pyrazol-4-yl]amino}quinazolin-7-yl)-1-methylpiperidin-3-ol] |  | 8.07
15 | CN1CC[C@H](c2cc3nc(Nc4cnn(C5(C)CC5)c4Cl)ncc3cc2Cl)[C@@H](O)C1 (single isomer, unassigned) [Ex-4.30, (3S,4S) or (3R,4R) 4-(6-chloro-2-{[5-chloro-1-(1-methylcyclopropyl)-1H-pyrazol-4-yl]amino}quinazolin-7-yl)-1-methylpiperidin-3-ol] |  | 7.32
16 | Clc1cc2cnc(Nc3cnn(C4CC4)c3Cl)nc2cc1C1CCN(C2COC2)C1 (single isomer, unassigned) [Ex-4.32, (S) or (R) 6-chloro-N-(5-chloro-1-cyclopropyl-1H-pyrazol-4-yl)-7-[1-(oxetan-3-yl)pyrrolidin-3-yl]quinazolin-2-amine] | 16.6 nM | 
17 | Clc1cc2cnc(Nc3cnn(C4CC4)c3Cl)nc2cc1C1CCN(C2COC2)C1 (single isomer, unassigned) [Ex-4.33, (S) or (R) 6-chloro-N-(5-chloro-1-cyclopropyl-1H-pyrazol-4-yl)-7-[1-(oxetan-3-yl)pyrrolidin-3-yl]quinazolin-2-amine] | 8.13 nM | 
